Reference: patent US20110124588A1, “SYNERGISTIC ACTIVE INGREDIENT COMBINATIONS” (Bayer Cropscience AG, priority 2008, published 2011)
Like-named read-outs stand apart in the source and are kept apart here.

Columns and labels:
Phaedon cochleariae = Phaedon cochleariae larvae test (sprayed cabbage leaves); assay type: in vivo, mustard beetle (Phaedon cochleariae) larvae; conditions: single active compound; for pest or weed control at 100 g/ha / pest or weed control at 0.16 g/ha / pest or weed control at 0.8 g/ha / pest or weed control at 4 g/ha / pest or weed control at 20 g/ha: Phaedon cochleariae
Procedure: (§1) If the actual kill rate exceeds the calculated value, the kill of the combination is superadditive, i.e. a synergistic effect is present. In this case, the actually observed kill rate must exceed the value calculated using the above formula for the expected kill rate (E).
Solvents: 78 parts by weight of acetone • • 1.5 parts by weight of dimethylformamide Emulsifier: 0.5 part by weight of alkylaryl polyglycol ether
After the desired period of time, the kill in % is determined 100% means that all beetle larvae have been killed; 0% means that none of the beetle larvae have been killed. The kill rates determined are entered into Colby's formula.

Tetranychus urticae = Tetranychus urticae test (OP-resistant/spray treatment); assay type: in vivo, greenhouse red spider mite (Tetranychus urticae)
Excerpt: (§2) The expected activity of a given combination of two active compounds can be calculated as follows, according to S. R. Colby, Weeds 15 (1967), 20-22:
(§3) X is the kill rate, expressed as a percentage of the untreated control, when employing active compound A at an application rate of m g/ha or in a concentration of m ppm, Y is the kill rate, expressed as a percentage of the untreated control, when employing active compound B at an application rate of n g/ha or in a concentration of n ppm and E is the kill rate, expressed as a percentage of the untreated control, when employing active compounds A and B at application rates of m and n g/ha or in a concentration of m and n ppm, then
as §1
(§4) solvents: 78 parts by weight of acetone • • 1.5 parts by weight of dimethylformamide emulsifier: 0.5 part by weight of alkylaryl polyglycol ether
(§5) To produce a suitable preparation of active compound, 1 part by weight of active compound is mixed with the stated amounts of solvents and emulsifier, and the concentrate is diluted with emulsifier-containing water to the desired concentration.
Discs of bean leaves (Phaseolus vulgaris) which are infested by all stages of the greenhouse red spider mite (Tetranychus urticae) are sprayed with an active compound preparation of the desired concentration.
After the desired period of time, the activity in % is determined 100% means that all spider mites have been killed; 0% means that none of the spider mites have been killed.

Myzus persicae = Myzus persicae test (spray treatment of infested cabbage leaves); assay type: in vivo, green peach aphid (Myzus persicae); conditions: for Kill in % after 6 d: single active compound; for pest or weed control at 0.16 g/ha / pest or weed control at 0.8 g/ha / pest or weed control at 4 g/ha / pest or weed control at 0.032 g/ha: Myzus persicae
Procedure: as §1, §4
After the desired period of time, the kill in % is determined 100% means that all aphids have been killed; 0% means that none of the aphids have been killed. The kill rates determined are entered into Colby's formula.

Spodoptera frugiperda = Spodoptera frugiperda larvae test (sprayed cabbage leaves); assay type: in vivo, army worm (Spodoptera frugiperda) larvae
Excerpt: as §2, §3, §1, §4, §5
Cabbage leaves (Brassica oleracea) are treated by spraying with the active compound preparation of the desired concentration and are populated with larvae of the army worm (Spodoptera frugiperda) while the leaves are still moist.
After the desired period of time, the kill in % is determined 100% means that all caterpillars have been killed; 0% means that none of the caterpillars have been killed. The kill rates determined are entered into Colby's formula.

[1] = 144 h, 6 d, read-out: Kill in % after 6 d
[2] = Tetranychus urticae, 48 h, read-out: Kill in % after 2 d
[3] = 24 h, read-out: Kill in % after 1 d
[4] = 144 h, read-out: Kill in % after 6 d
[5] = 48 h, 2 d, read-out: Kill in % after 2 d
[6] = 144 h, 0.16 g/ha, 6 d, read-out: Kill in % after 6 d
[7] = Spodoptera frugiperda, 48 h, read-out: Kill in % after 2 d
[8] = Spodoptera frugiperda, 144 h, read-out: Kill in % after 6 d
[9] = Tetranychus urticae, 144 h, read-out: Kill in % after 6 d

Work on `COCCOC(=O)C(C#N)(C(=O)c1ccccc1C(F)(F)F)c1ccc(C(C)(C)C)cc1` (stereo not drawn) [cyflumetofen, 2-methoxyethyl alpha-cyano-alpha-[4-(1,1-dimethylethyl)phenyl]-beta-oxo-2-(trifluoromethyl)benzenepropanoate] yielded a pest or weed control at 100 g/ha (Phaedon cochleariae; [1]) of 0% and a pest or weed control at 0.8 g/ha (Tetranychus urticae; [2]) of 50%.
With emamectin benzoate the “Kill in % after 6 d” value (Myzus persicae; 0.0064 g/ha) was 0%, the “Kill in % after 2 d” value (Spodoptera frugiperda; single active compound, 0.8 g/ha, 2 d) was 83% and the “Kill in % after 6 d” value (Tetranychus urticae; single active compound, 0.032 g/ha, after 6 d) was 0%.
`CC(c1ccc(C(F)(F)F)nc1)S(C)(=O)=NC#N` (stereo not shown) [compound (I-8)] gave a pest or weed control at 0.16 g/ha (Myzus persicae; [3]) of 0%, a pest or weed control at 0.16 g/ha (Myzus persicae; [4]) of 60% and a pest or weed control at 0.16 g/ha (Phaedon cochleariae; 48 h, 0.16 g/ha, 2 d, read-out: Kill in % after 2 d) of 0%. For the same compound, the pest or weed control at 0.8 g/ha (Phaedon cochleariae; [5]) was 0%, the pest or weed control at 4 g/ha (Phaedon cochleariae; [5]) was 0% and the pest or weed control at 20 g/ha (Phaedon cochleariae; [5]) was 0%. For the same compound, the pest or weed control at 100 g/ha (Phaedon cochleariae; [5]) was 67%, the pest or weed control at 0.16 g/ha (Phaedon cochleariae; [6]) was 0% and the pest or weed control at 0.8 g/ha (Phaedon cochleariae; [1]) was 0%. It also gave a pest or weed control at 4 g/ha (Phaedon cochleariae; [1]) of 0%, a pest or weed control at 20 g/ha (Phaedon cochleariae; [1]) of 17% and a pest or weed control at 100 g/ha (Phaedon cochleariae; [1]) of 67%. For the same compound, the pest or weed control at 0.16 g/ha (Spodoptera frugiperda; [7]) was 0%, the pest or weed control at 0.8 g/ha (Spodoptera frugiperda; [7]) was 0% and the pest or weed control at 20 g/ha (Spodoptera frugiperda; [7]) was 0%. The pest or weed control at 0.16 g/ha (Spodoptera frugiperda; [8]) was 0%, the pest or weed control at 0.8 g/ha (Spodoptera frugiperda; [8]) was 0% and the pest or weed control at 4 g/ha (Spodoptera frugiperda; [8]) was 0%. The pest or weed control at 20 g/ha (Spodoptera frugiperda; [8]) was 0%, the pest or weed control at 0.8 g/ha (Tetranychus urticae; [2]) was 0% and the pest or weed control at 4 g/ha (Tetranychus urticae; [2]) was 0%. The pest or weed control at 0.16 g/ha (Tetranychus urticae; [9]) was 0%, the pest or weed control at 0.8 g/ha (Tetranychus urticae; [9]) was 0% and the pest or weed control at 4 g/ha (Tetranychus urticae; [9]) was 0%. For the same compound, the pest or weed control at 20 g/ha (Tetranychus urticae; [9]) was 0% and the pest or weed control at 100 g/ha (Tetranychus urticae; [9]) was 0%.
In the case of abamectin, the “Kill in % after 6 d” value (Myzus persicae; 0.032 g/ha) is reported as 0%, the “Kill in % after 6 d” value (Phaedon cochleariae; 0.16 g/ha, 6 d) is reported as 0% and the “Kill in % after 2 d” value (Tetranychus urticae; single active compound, 0.032 g/ha, after 2 d) is reported as 0%.
In the case of `Cc1ccc(/N=C/N(C)/C=N/c2ccc(C)cc2C)c(C)c1` [amitraz], the pest or weed control at 0.8 g/ha (Myzus persicae; [3]) is reported as 0%, the pest or weed control at 4 g/ha (Myzus persicae; [4]) is reported as 0% and the pest or weed control at 20 g/ha (Tetranychus urticae; [9]) is reported as 80%.
Work on `CC1(C)[C@H](C(=O)O[C@H](C#N)c2cccc(Oc3ccccc3)c2)[C@@H]1C=C(Br)Br` [deltamethrin] yielded a pest or weed control at 0.032 g/ha (Myzus persicae; [3]) of 0%, a pest or weed control at 0.8 g/ha (Phaedon cochleariae; [5]) of 67% and a pest or weed control at 0.16 g/ha (Phaedon cochleariae; [6]) of 50%. It also gave a pest or weed control at 0.16 g/ha (Spodoptera frugiperda; [8]) of 17% and a pest or weed control at 4 g/ha (Tetranychus urticae; [9]) of 0%.
For `O=C(NC(=O)c1c(F)cccc1F)Nc1ccc(OC(F)(F)C(F)OC(F)(F)F)c(Cl)c1` (stereo not shown) [novaluron], the pest or weed control at 4 g/ha (Myzus persicae; [4]) was 0%, the pest or weed control at 0.8 g/ha (Spodoptera frugiperda; [7]) was 33% and the pest or weed control at 20 g/ha (Tetranychus urticae; [2]) was 0%.
For `Cc1c(COC(=O)C2C(/C=C(\Cl)C(F)(F)F)C2(C)C)cccc1-c1ccccc1` (stereo not shown) [bifenthrin], the pest or weed control at 0.032 g/ha (Myzus persicae; [4]) was 0%, the pest or weed control at 0.8 g/ha (Phaedon cochleariae; [1]) was 50% and the pest or weed control at 0.8 g/ha (Spodoptera frugiperda; [8]) was 0%. The pest or weed control at 4 g/ha (Tetranychus urticae; [9]) was 40%.
`CC1=NNC(=O)N(/N=C/c2cccnc2)C1` [pymetrozine] was tested, and the pest or weed control at 0.16 g/ha (Myzus persicae; [4]) was 0%, the pest or weed control at 0.8 g/ha (Myzus persicae; [4]) was 60% and the pest or weed control at 100 g/ha (Tetranychus urticae; [9]) was 0%.
